In the supplement of paper PMC10307832:

What was measured:
Assay in all cases: relative viability (nuclei count vs DMSO), 5 days (fraction); higher = more cells survive
[1] = compound: Cc1cnc(CNC(=O)c2c(=O)c3ccc(N4CCCN(C)CC4)nc3n3c2sc2ccccc23)cn1 [CX-5461] + Cc1nc(Nc2ncc(C(=O)Nc3c(C)cccc3Cl)s2)cc(N2CCN(CCO)CC2)n1 [Dasatinib] (partner 0.075 µM)
In short: (§1)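 One day after seeding in 1536-well plates, lung cancer cell lines were dosed by pin tool. Dosing was either single-drug or a fixed anchor-drug dose plus five library-drug doses (not always all listed) in √10 steps. After 5 days, nuclei were stained in one fix-and-stain step and counted on 4× images, and relative viability is the nuclei count of treated wells over that of vehicle wells, given as the median of duplicate plates.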

[2] = compound: O=C(Nc1cc(C(F)(F)F)cc(C(F)(F)F)c1)c1cc(Cl)ccc1O [IMD-0354] + Cc1cc(Nc2cc(N3CCN(C)CC3)nc(Sc3ccc(NC(=O)C4CC4)cc3)n2)n[nH]1 [Tozasertib] (partner 0.1 µM)
In short: as §1

[3] = compound: O=C(Nc1cc(C(F)(F)F)cc(C(F)(F)F)c1)c1cc(Cl)ccc1O [IMD-0354] + Nc1nc2[nH]cc(CCc3ccc(C(=O)N[C@@H](CCC(=O)O)C(=O)O)cc3)c2c(=O)[nH]1 [Pemetrexed] (partner 0.2 µM)
In short: as §1

[4] = compound: O=C(Nc1cc(C(F)(F)F)cc(C(F)(F)F)c1)c1cc(Cl)ccc1O [IMD-0354] + CC(C)C[C@H](NC(=O)[C@H](Cc1ccccc1)NC(=O)c1cnccn1)B(O)O [Bortezomib] (partner 0.002 µM)
In short: as §1

| Cell Line | relative viability ([1]; first compound 0.01 µM) | relative viability ([1]; first compound 0.03162 µM) | relative viability ([1]; first compound 0.1 µM) | relative viability ([1]; first compound 0.3162 µM) | relative viability ([1]; first compound 1 µM) | relative viability ([2]; first compound 0.04 µM) | relative viability ([2]; first compound 0.1265 µM) | relative viability ([2]; first compound 0.4 µM) | relative viability ([2]; first compound 1.265 µM) | relative viability ([2]; first compound 4 µM) | relative viability ([3]; first compound 0.04 µM) | relative viability ([3]; first compound 0.1265 µM) | relative viability ([3]; first compound 0.4 µM) | relative viability ([3]; first compound 1.265 µM) | relative viability ([3]; first compound 4 µM) | relative viability ([4]; first compound 0.04 µM) | relative viability ([4]; first compound 0.1265 µM) | relative viability ([4]; first compound 0.4 µM) | relative viability ([4]; first compound 1.265 µM) | relative viability ([4]; first compound 4 µM) |
| --- | --- | --- | --- | --- | --- | --- | --- | --- | --- | --- | --- | --- | --- | --- | --- | --- | --- | --- | --- | --- |
| HCC-15 | 0.673 | 0.666 | 0.655 | 0.617 | 0.229 | 0.331 | 0.379 | 0.31 | 0.17 | 0.098 | 0.211 | 0.215 | 0.198 | 0.175 | 0.172 | 1 | 0.962 | 0.549 | 0.346 | 0.119 |
| HCC-44 |  |  |  |  |  | 0.955 | 0.899 | 0.706 | 0.351 | 0.17 | 0.733 | 0.692 | 0.595 | 0.354 | 0.344 | 0.913 | 0.918 | 0.35 | 0.213 | 0.179 |
| IA-LM |  |  |  |  |  |  |  |  |  |  |  |  |  |  |  | 0.866 | 0.977 | 0.76 | 0.102 | 0.121 |
| LK-2 | 0.258 | 0.229 | 0.251 |  | 0.195 | 0.182 | 0.179 | 0.207 | 0.175 | 0.131 | 0.284 | 0.31 |  | 0.172 | 0.111 |  |  |  |  |  |
| NCI-H358 | 0.146 | 0.148 | 0.176 | 0.0999 | 0.12 | 0.11 | 0.1 | 0.0993 | 0.0845 | 0.0798 | 0.174 | 0.172 | 0.175 | 0.138 | 0.126 |  |  |  |  |  |
| NCI-H522 | 0.886 | 1.04 | 0.916 |  | 0.742 | 0.58 | 0.513 | 0.5 | 0.576 | 0.404 | 1.35 | 0.895 | 0.91 | 0.62 | 0.397 |  |  |  |  |  |
| NCI-H727 | 0.324 | 0.361 | 0.253 | 0.377 | 0.31 | 0.602 | 0.673 | 0.489 | 0.539 | 0.453 |  |  |  |  |  | 0.841 | 0.923 | 0.532 | 0.38 | 0.359 |
| NCI-H1299 |  |  |  |  |  |  |  |  |  |  |  |  |  |  |  | 0.938 | 0.965 | 0.841 | 0.438 | 0.193 |
| NCI-H1395 | 0.402 | 0.414 | 0.418 | 0.39 | 0.367 | 0.753 | 0.721 | 0.683 | 0.453 | 0.344 | 0.986 | 0.81 | 0.616 | 0.334 | 0.323 |  |  |  |  |  |
| NCI-H1563 | 0.461 | 0.426 | 0.464 | 0.444 | 0.444 |  |  |  |  |  | 0.815 | 0.9 | 0.669 | 0.5 | 0.231 | 1.01 | 0.927 | 0.768 | 0.403 | 0.38 |
| NCI-H1623 | 0.524 | 0.473 | 0.521 | 0.568 | 0.534 | 0.484 | 0.444 | 0.398 | 0.342 | 0.277 |  |  |  |  |  |  |  |  |  |  |
| NCI-H1648 |  |  |  |  |  |  | 0.454 | 0.498 | 0.424 | 0.269 | 0.653 | 0.693 | 0.401 | 0.455 | 0.277 |  |  |  |  |  |
| NCI-H1703 |  |  |  |  |  |  |  |  |  |  |  |  |  |  |  | 0.234 | 0.3 | 0.352 | 0.168 | 0.102 |
| NCI-H1792 | 0.738 | 0.893 | 0.825 | 0.95 | 0.613 |  |  |  |  |  | 1.01 | 0.57 | 0.493 | 0.163 | 0.152 | 1.11 | 0.815 | 0.688 | 0.635 | 0.321 |
| NCI-H1793 | 0.347 | 0.409 | 0.368 |  | 0.343 | 0.405 | 0.321 | 0.233 | 0.15 | 0.191 | 0.971 | 0.795 | 0.446 | 0.191 | 0.257 |  |  |  |  |  |
| NCI-H1944 | 0.208 | 0.204 | 0.168 | 0.14 | 0.11 | 0.252 | 0.245 | 0.206 | 0.208 | 0.131 | 0.593 | 0.683 | 0.642 | 0.146 | 0.122 |  |  |  |  |  |
| NCI-H2170 | 0.602 | 0.552 | 0.701 | 0.619 | 0.436 | 0.788 | 0.779 | 0.377 | 0.624 | 0.226 | 0.275 | 0.302 | 0.235 | 0.286 | 0.191 |  |  |  |  |  |
| NCI-H2342 | 0.311 | 0.317 | 0.308 | 0.335 | 0.285 | 0.497 | 0.534 | 0.471 | 0.401 | 0.377 | 0.814 | 0.822 | 0.585 | 0.508 | 0.408 |  |  |  |  |  |
| SK-MES-1 | 0.339 | 0.387 | 0.397 | 0.344 | 0.198 | 1.14 | 0.873 | 0.543 | 0.287 | 0.215 | 1.16 | 1.06 | 0.466 | 0.349 | 0.187 |  |  |  |  |  |
| SW 900 | 0.45 | 0.541 | 0.701 | 0.4 | 0.211 | 0.635 | 0.531 | 0.409 | 0.273 | 0.225 | 0.544 | 0.519 | 0.329 | 0.182 | 0.196 |  |  |  |  |  |
